Results: US20230263822A1, “MODULATION OF FACTOR 11 EXPRESSION” (Ionis Pharmaceuticals, Inc., priority 2008, published 2023)
Strand notation (5' to 3'): a small letter for the sugar, then the base; units joined by * are phosphorothioate-linked, units joined directly phosphodiester-linked; [ ] holds rarer units or linkages, { } end groups; capitals alone tell only the bases. e = 2'-O-(2-methoxyethyl) (MOE); [5mC] = 5-methylcytosine; d = 2'-deoxy (DNA)

Legend:
Factor 11 mRNA = Factor 11 mRNA in cynomolgus monkey liver, day 55 (Example 46); format: in vivo, cynomolgus monkeys; details: 25 mg/kg subcutaneously, primer probe set LTS00301
Protocol: (§1) Groups, each consisting of two male and two female monkeys, were injected subcutaneously with 25 mg/kg of ISIS 416850, ISIS 449709, ISIS 445522, ISIS 449710, ISIS 449707, ISIS 449711, ISIS 449708, 416858, and ISIS 445531. Antisense oligonucleotide was administered to the monkeys at 25 mg/kg three times per week for week 1 and 25 mg/kg twice per week for weeks 2 to 8. A control group, consisting of two male and two female monkeys was injected subcutaneously with PBS according to the same dosing regimen. Body weights were taken 14 days and 7 days before the start of treatment and were then measured weekly throughout the treatment period. Blood samples were collected 14 days and 5 days before the start of treatment and subsequently several times during the dosing regimen for PT and aPTT measurements, and measurement of various hematologic factors. On day 55, the monkeys were euthanized by exsanguination while under deep anesthesia, and organs harvested for further analysis.
On day 55, RNA was extracted from liver tissue for real-time PCR analysis of Factor 11 using primer probe set LTS00301. Results are presented as percent inhibition of Factor 11, relative to PBS control.

[1] = Viscosity of ISIS antisense oligonucleotides, micro-viscometer at 25 °C (Example 47); format: physicochemical; details: for Concentration: concentration of the viscosity sample, UV reading at 260 nM at 85° C.; for Viscosity: in water, micro-viscometer at 25° C., at the concentration of the same line
Protocol: The viscosity of antisense oligonucleotides targeting human Factor 11 was measured with the aim of screening out antisense oligonucleotides which have a viscosity more than 40 cP at a concentration of 165-185 mg/mL.
ISIS oligonucleotides (32-35 mg) were weighed into a glass vial, 120 μL of water was added and the antisense oligonucleotide was dissolved into solution by heating the vial at 50° C. Part of (75 μL) the pre-heated sample was pipetted to a micro-viscometer (Cambridge). The temperature of the micro-viscometter was set to 25° C. and the viscosity of the sample was measured. Another part (20 μL) of the pre-heated sample was pipetted into 10 mL of water for UV reading at 260 nM at 85° C. (Cary UV instrument).

Factor 11 protein = Factor 11 protein in monkey plasma by sandwich ELISA (Example 46); format: in vivo, cynomolgus monkeys; details: 25 mg/kg subcutaneously
Protocol: as §1
Plasma samples from all monkey groups taken on different days were analyzed by a sandwich-style ELISA assay (Affinity Biologicals Inc.) using an affinity-purified polyclonal anti-Factor 11 antibody as the capture antibody and a peroxidase-conjugated polyclonal anti-Factor 11 antibody as the detecting antibody. Monkey plasma was diluted 1:50 for the assay. Peroxidase activity was expressed by incubation with the substrate o-phenylenediamine. The color produced was quantified using a microplate reader at 490 nm and was considered to be proportional to the concentration of Factor 11 in the samples.
The results are presented in Table 147, expressed as percentage reduction relative to that of the PBS control.

human Factor 11 mRNA = experiment: Dose-dependent inhibition of human Factor 11 in HepG2 cells, electroporation 375-12,000 nM (Example 32); format: cell-based; details: for Percent inhibition of Factor 11 mRNA at 375 nM / Percent inhibition of Factor 11 mRNA at 750 nM / IC50: electroporation; for Percent inhibition of Factor 11 mRNA at 375 nM / Percent inhibition of Factor 11 mRNA at 750 nM / Percent inhibition of Factor 11 mRNA at 1,500 nM / Percent inhibition of Factor 11 mRNA at 3,000 nM / Percent inhibition of Factor 11 mRNA at 6,000 nM / Percent inhibition of Factor 11 mRNA at 12,000 nM: approx. 16 hours, relative to untreated control cells; for Percent inhibition of Factor 11 mRNA at 1,500 nM: electroporation, 1,500 nM; for Percent inhibition of Factor 11 mRNA at 3,000 nM: electroporation, 3,000 nM; for Percent inhibition of Factor 11 mRNA at 6,000 nM: electroporation, 6,000 nM; for Percent inhibition of Factor 11 mRNA at 12,000 nM: electroporation, 12,000 nM; for IC50: Factor 11 mRNA expression
Protocol: These gapmers were tested at various doses in HepG2 cells. Cells were plated at a density of 20,000 cells per well and transfected using electroporation with 375 nM, 750 nM, 1,500 nM, 3,000 nM, 6,000 nM and 12,000 nM concentrations of antisense oligonucleotide, as specified in Table 47. After a treatment period of approximately 16 hours, RNA was isolated from the cells and Factor 11 mRNA levels were measured by quantitative real-time PCR. Human Factor 11 primer probe set RTS 2966 was used to measure mRNA levels. Factor 11 mRNA levels were adjusted according to total RNA content, as measured by RIBOGREEN. Results are presented as percent inhibition of Factor 11, relative to untreated control cells.
ISIS 416850, ISIS 416858, ISIS 445522, and ISIS 445531 (see Table 45 above) were re-tested in vitro along with the microwalk gapmers under the same conditions described above.
The first two listed gapmers in Table 47 are the original gapmers (ISIS 416850 and ISIS 416858) from which the remaining gapmers were designed via microwalk and are designated by an asterisk.

Row | Substance | % inhibition of Factor 11 mRNA in liver relative to the PBS control (Factor 11 mRNA) | Concentration [1] | Viscosity [1] | Inhibition of Factor 11 protein relative to the PBS control (percentage reduction) (Factor 11 protein; Day 10, plasma) | Inhibition of Factor 11 protein relative to the PBS control (percentage reduction) (Factor 11 protein; Day 17, plasma) | Inhibition of Factor 11 protein relative to the PBS control (percentage reduction) (Factor 11 protein; Day 24, plasma) | Inhibition of Factor 11 protein relative to the PBS control (percentage reduction) (Factor 11 protein; Day 31, plasma) | Inhibition of Factor 11 protein relative to the PBS control (percentage reduction) (Factor 11 protein; Day 38, plasma) | Inhibition of Factor 11 protein relative to the PBS control (percentage reduction) (Factor 11 protein; Day 45, plasma) | Inhibition of Factor 11 protein relative to the PBS control (percentage reduction) (Factor 11 protein; Day 52, plasma) | Inhibition of Factor 11 protein relative to the PBS control (percentage reduction) (Factor 11 protein; Day 55, plasma) | Inhibition of Factor 11 protein relative to the PBS control (percentage reduction) (Factor 11 protein; Day −5, plasma) | Inhibition of Factor 11 protein relative to the PBS control (percentage reduction) (Factor 11 protein; Day −14, plasma) | Percent inhibition of Factor 11 mRNA at 375 nM (human Factor 11 mRNA) | Percent inhibition of Factor 11 mRNA at 750 nM (human Factor 11 mRNA) | Percent inhibition of Factor 11 mRNA at 1,500 nM (human Factor 11 mRNA) | Percent inhibition of Factor 11 mRNA at 3,000 nM (human Factor 11 mRNA) | Percent inhibition of Factor 11 mRNA at 6,000 nM (human Factor 11 mRNA) | Percent inhibition of Factor 11 mRNA at 12,000 nM (human Factor 11 mRNA) | IC50 (human Factor 11 mRNA)
1 | 449707 (antisense e[5mC]*eA*e[5mC]*eA*dG*dT*dT*dT*d[5mC]*dT*dG*dG*e[5mC]*eA*eG*eG) [compound 449707] | 47% | 166 mg/mL | 7 cP | 16% | 19% | 21% | 29% | 28% | 35% | 29% | 32% | 0% | 0% | 7% | 35% | 63% | 73% | 85% | 91% | 1260 nM
2 | 449708 (antisense eA*e[5mC]*eA*dG*dT*dT*dT*d[5mC]*dT*dG*dG*e[5mC]*eA*eG) [compound 449708] | 46% | 188 mg/mL | 9 cP | 7% | 15% | 3% | 14% | 9% | 2% | 6% | 6% | 0% | 1% | 0% | 0% | 22% | 33% | 61% | 85% | 4460 nM
3 | 449709 (antisense eG*e[5mC]*eA*e[5mC]*dA*dG*dT*dT*dT*d[5mC]*dT*dG*dG*d[5mC]*eA*eG*eG*e[5mC]) [compound 449709] | 69% | 171 mg/mL | 65 cP | 27% | 35% | 44% | 45% | 46% | 48% | 47% | 50% | 0% | 1% | 52% | 71% | 80% | 87% | 92% | 95% | 380 nM
4 | 449710 (antisense e[5mC]*eA*e[5mC]*dA*dG*dT*dT*dT*d[5mC]*dT*dG*dG*d[5mC]*eA*eG*eG) [compound 449710] | 52% | 186 mg/mL | 7 cP | 10% | 14% | 17% | 25% | 20% | 23% | 4% | 24% | 0% | 1% | 2% | 21% | 52% | 70% | 82% | 87% | 1590 nM
5 | 449711 (antisense eA*e[5mC]*dA*dG*dT*dT*dT*d[5mC]*dT*dG*dG*d[5mC]*eA*eG) [compound 449711] | 0% | 209 mg/mL | 6 cP | 5% | 3% | 6% | 9% | 2% | 4% | 3% | 5% | 1% | 0% | 6% | 14% | 1% | 7% | 32% | 52% | 11000 nM
